Columns and labels:
pre-delta cells [1] = assay: High-content small molecule screen and dose response on pre-delta cells (step 6); details: for cell loss at higher concentration: dose response, step 6
Method: Clusters were collected from either Stage 3, or Stage 4, or Stage 5 completed flasks, washed three times with PBS, dispersed into single cells using TrypLE Express for 10 minutes, and quenched using S3 media. […] Chemical compounds were then introduced to each well and incubated at 37° C. in a humidified atmosphere. The fresh media and compounds were added every other day by replacing the spent media. After 5 days for Stage 3 completed cells, 4 days for Stage 4 completed cells, and 7 days for Stage 5 completed cells of incubation, the cells were fixed with 4% PFA and stained for insulin, glucagon, and somatostatin as described herein. Stained cells were imaged with the Cellomics Scan Version 6.6.0 (Thermo Scientific HCS Studio). Twenty-five view fields were captured for each well and analyzed. The percentage of cells expressing only somatostatin was calculated for each well.
Thus, to further increase the percentage of monohormonal SC-δ cells, a small molecule screen on pre-delta cells was conducted, as described earlier with a similar set of criteria (FIG. 2D).

delta progenitor cells [2] = assay: High-content small molecule screen on delta progenitor cells (step 5); type: cell-based, human; details: library screened at 20 μM, 2 μM and 0.2 μM
Method: (§1) Compounds that increased the percentage of Pre-Delta (PD) cells (positive for somatostatin (SST) while negative for both insulin (INS) and glucagon (GCG)) and reduced the percentage of polyhormonal cells were considered as hits. […] The library was screened at 20 μM, 2 μM, and 0.2 μM final concentrations (FIG. 22).

PP cells = PP cells treated with FGF receptor inhibitors along with RA, somatostatin expressing cells; type: cell-based, human; details: control having only RA, six-well plates, 5 days
Method: (§2) The cell clusters collected during the course of differentiation at different stages were dissociated into single cell suspension by treating with TrypLE Express at 37° C. for 10 minutes after washing twice with phosphate buffered saline (PBS). The enzyme activity was quenched by adding equal volume of S3 media to prevent further degradation, and dispersed single cells were washed with PBS, fixed in 4% paraformaldehyde (PFA) for 20 minutes and subsequently stored at 4° C. until further use. On the day of staining, the cells were passed through 40 μm filter and washed twice with PBS before permeabilizing in block solution (PBS+0.1% Triton X-100+5% donkey serum; PBST). […] The stained cells were acquired in Attune flow cytometer and were analyzed using FlowJo v10 software. […]
To further explore the specificity of inhibition of FGF receptors, PP cells were treated with five additional FGF receptor inhibitors (AZD4547, erdafitinib, roblitinib, pemigatinib, or BGJ398) along with RA (FIG. 7). […] To find an effective concentration of these compounds, differentiated PP cells were transferred to six-well plates and treated with either control having only RA or each FGF receptor inhibitors along with RA for 5 days and quantified the percentage of somatostatin expressing cells.

pre-delta cells [3] = assay: Differentiation of pre-delta cells to SCδ cells (stage 6), flow cytometry and immunohistochemistry; type: cell-based, human
Method: (§3) The differentiation was carried out in six stages. The generation of PP1 cells from HUES8 cells was carried out using prior protocols with modifications (see, e.g., Pagliuca et al., Cell, 159:428-439 (2014); and Peterson et al., Nat. Commun., 11:Article No. 2241 (14 pages) (2020)); and the delta cell differentiation was further carried out using PP1 cells. The media changes for differentiation were as follows:
(§4) The cell clusters collected during the course of differentiation at different stages were dissociated into single cell suspension by treating with TrypLE Express at 37° C. for 10 minutes after washing twice with phosphate buffered saline (PBS). The enzyme activity was quenched by adding equal volume of S3 media to prevent further degradation, and dispersed single cells were washed with PBS, fixed in 4% paraformaldehyde (PFA) for 20 minutes and subsequently stored at 4° C. until further use. On the day of staining, the cells were passed through 40 μm filter and washed twice with PBS before permeabilizing in block solution (PBS+0.1% Triton X-100+5% donkey serum; PBST). After 40 minutes of blocking, the cells were incubated with primary antibodies in block solution for 1 hour at room temperature (RT), washed twice with PBST, and then incubated with appropriate secondary antibodies in block solution for 1 hour at RT. Finally, cells were washed twice with PBST and resuspended in PBS at a concentration of 1×10^6 cells/mL. The stained cells were acquired in Attune flow cytometer and were analyzed using FlowJo v10 software. The Pdx1 (R&D Systems, AF2419) antibody was used at 1:250, Nkx6.1 (Iowa Hybridoma Bank, F55A12) at 1:100, insulin (Iowa Hybridoma Bank, GN-ID4) at 1:250, glucagon (LSBio, LS-B10219) at 1:25,000, and somatostatin (Santa Cruz Biotechnologies, SC-25262) at a dilution of 1:8000. The secondary antibodies are either donkey-anti-goat-Alexa Fluor 488 (Invitrogen, A-11055, 1:1000), donkey-anti-rabbit-Alexa Fluor 488 (Invitrogen, A-21206, 1:1000), donkey-anti-rat-Alexa Fluor 594 (Invitrogen, A-21209, 1:1000), or donkey-anti-mouse-Alexa Fluor 647 (Invitrogen, A-31571 1:1000).
The differentiated cell clusters or human islets were fixed in 4% PFA and stored at 4° C. until further use. The clusters were washed three times with PBS, set in Histogel (Thermo), embedded in paraffin, and sectioned at 4 μm for histological analysis. Antigen retrieval was performed in citrate buffer (pH 6.5) for 1 hour in boiling water bath on deparaffinized and rehydrated sections, and then allowed to cool for 40 minutes. Sections were then permeabilized and blocked in block solution (PBS+0.1% Triton X-100+5% donkey serum; PBST) for 40 minutes. Primary antibodies were added at appropriate dilutions and incubated overnight at 4° C. On the following day, secondary antibodies were added for 1 hour at room temperature. After thorough rinse with PBST, sections were mounted in Vectashield (Vector Laboratories), covered with coverslips, and sealed with nail polish. The sections were visualized using Zeiss microscope. The secondary antibodies are either donkey-anti-goat-Alexa Fluor 488 (Invitrogen, A-11055, 1:1000), donkey-anti-rabbit-Alexa Fluor 488 (Invitrogen, A-21206, 1:1000), donkey-anti-rat-Alexa Fluor 594 (Invitrogen, A-21209, 1:1000), or donkey-anti-mouse-Alexa Fluor 647 (Invitrogen, A-31571 1:1000).

delta progenitor cells [4] = assay: Differentiation of delta progenitor cells to pre-delta cells (stage 5), flow cytometry; type: cell-based, human
Method: as §3, §4, §1

PDX1^+/NKX6.1^− PP cells = assay: Differentiation of PP cells to delta progenitor cells (stage 4), hormone expression by flow cytometry; type: cell-based, human; details: stage 3 cells treated independently or in combination for 5 days
Method: After 72 hours of culture in mTeSR, the clusters of HUES8 cells were allowed to settle at the bottom of the spinner flask, and spent media was replaced with stage specific differentiation media containing specific growth factors and small molecules.
as §3
as §2, with “use.” for “use. On the day of staining, the cells were passed through 40 μm filter and washed twice with PBS before permeabilizing in block solution (PBS+0.1% Triton X-100+5% donkey serum; PBST).”

CC(C)[C@H]1C(=O)N[C@H](CO)Cc2c[nH]c3cccc(c23)N1C [indolactam V, (10S,13S)-13-(hydroxymethyl)-9-methyl-10-propan-2-yl-3,9,12-triazatricyclo[6.6.1.0^4,15]pentadeca-1,4(15),5,7-tetraen-11-one]
dose response, monohormonal SCδ cells (pre-delta cells [1]; FIG. 2F, FIG. 24B): dose dependent increase in monohormonal SCδ cells | cell loss at higher concentration (pre-delta cells [1]): severe cell loss | screen outcome, step 6 (increase of monohormonal SC-δ cells) (pre-delta cells [1]; library screened at 20 μM, 2 μM and 0.2 μM): primary hits | screen outcome, step 5 (increase of pre-delta cells, fewer polyhormonal cells) (delta progenitor cells [2]): primary hits

CC1=C(/C=C/C(C)=C/C=C/C(C)=C/C(=O)O)C(C)(C)CCC1 [RA, retinoic acid]
somatostatin expressing cells (PP cells): 2.53±0.15%

C=C[C@@]1(C)CC(=O)[C@]2(O)[C@@]3(C)[C@@H](O)CCC(C)(C)[C@@H]3[C@H](O)[C@H](OC(C)=O)[C@@]2(C)O1 [forskolin, [(3R,4aR,5S,6S,6aS,10S,10aR,10bS)-3-ethenyl-6,10,10b-trihydroxy-3,4a,7,7,10a-pentamethyl-1-oxo-5,6,6a,8,9,10-hexahydro-2H-benzo[f]chromen-5-yl]acetate]
SCδ cells (pre-delta cells [3]; 200 μM for 7 days, stage 6, flow cytometry): 17.51±0.88% | percentage of SC-δ cells after long-term culture (pre-delta cells [3]; forskolin withdrawn from S3 media, cultured for additional two weeks): 31.15±1.30% | SC-α cells (pre-delta cells [3]; stage 6, flow cytometry): 0.79±0.14% | SST^+GCG^+INS^+ cells (pre-delta cells [3]; stage 6, flow cytometry): 11.02±0.60% | SST^−GCG^+INS^+ cells (pre-delta cells [3]; stage 6, flow cytometry): 2.36±0.36% | cell loss at higher concentration (pre-delta cells [1]): severe cell loss

Cc1cccc(-c2[nH]ncc2-c2ccc3ncccc3n2)n1 [Alk5 inhibitor II, 2-[5-(6-methylpyridin-2-yl)-1H-pyrazol-4-yl]-1,5-naphthyridine]
monohormonal SC-delta cells on omission of the compound from stage 5 (delta progenitor cells [4]; Indolactam V and γ-secretase inhibitor XX without Alk5inh II, FIG. 24C): significant reduction in monohormonal SC-delta cells | resulting cells express somatostatin (delta progenitor cells [4]; delta progenitor cells treated with Alk5i II, FIG. 1D): approximately 8% | SC-α cells population (delta progenitor cells [4]; stage 5, flow cytometry): 14.78±1.72% | SC-β cells population (delta progenitor cells [4]; stage 5, flow cytometry): 5.20±0.72% | SST^+GCG^+INS^+ cells (delta progenitor cells [4]; stage 5, flow cytometry): 15.46±15.07% | SST^−GCG^−INS^− cells (delta progenitor cells [4]; stage 5, flow cytometry): 20.97±7.59% | polyhormonal cells (delta progenitor cells [4]; stage 5, flow cytometry): 54.88±6.74% | pre-delta cells (somatostatin positive, insulin and glucagon negative) (delta progenitor cells [4]; stage 5, flow cytometry): 4.11±1.12%

C[C@H](NC(=O)Cc1cc(F)cc(F)c1)C(=O)N[C@@H]1C(=O)N(C)c2ccccc2-c2ccccc21 [γ-secretase inhibitor XX, N-[(1S)-2-[[(7S)-6,7-dihydro-5-methyl-6-oxo-5H-dibenz[b,d]azepin-7-yl]amino]-1-methyl-2-oxoethyl]-3,5-difluoro-benzeneacetamide]
screen outcome, step 5 (increase of pre-delta cells, fewer polyhormonal cells) (delta progenitor cells [2]): primary hits

CCN(CC)CCCCNc1ncc2cc(-c3cc(OC)cc(OC)c3)c(NC(=O)NC(C)(C)C)nc2n1 [PD173074, 1-tert-butyl-3-[2-[4-(diethylamino)butylamino]-6-(3,5-dimethoxyphenyl)pyrido[2,3-d]pyrimidin-7-yl]urea]
somatostatin expression in PP cells (PDX1^+/NKX6.1^− PP cells): induced a small population of somatostatin expression

c1ccc2c(-c3cnn4cc(-c5ccc(N6CCNCC6)cc5)cnc34)ccnc2c1 [LDN193189, 4-[6-(4-piperazin-1-ylphenyl)pyrazolo[1,5-a]pyrimidin-3-yl]quinolin]
screen outcome, step 5 (increase of pre-delta cells, fewer polyhormonal cells) (delta progenitor cells [2]): primary hits

Source: patent US20260218132A1, “METHODS AND MATERIALS FOR GENERATING STEM CELL-DERIVED ENDOCRINE CELL TYPES” (Mayo Foundation for Medical Education and Research, priority 2023, published 2026)
